Test results: patent US20240327334A1, “Covalent Inhibitors As Antiviral Agents” (Enanta Pharmaceuticals, Inc., priority 2022, published 2024)

Tests used:
[1] = system: SARS-CoV-2 replicon; assay: microbe, parasite or virus in culture; format: cell-based; conditions: Severe acute respiratory syndrome coronavirus 2, Huh-7
[2] = biological target: SARS-CoV-2 Papain-like (PLpro) protease (Severe acute respiratory syndrome coronavirus 2, UniProt P0DTD1); assay: SARS-CoV-2 Papain-like (PLpro) protease biochemical enzyme inhibition assay (ubiquitin-fluorophore substrate, Ub-R110); conditions: Ub-R110 substrate; run in duplicate; read-out: PLpro IC50

| SMILES | EC50 [1] | IC50 [2] |
| --- | --- | --- |
| Cn1cc2cc(C3(NC(=O)c4ccccc4CNC(=O)C(=O)NCC#Cc4nccs4)CC3)ccc2n1 [Example 337] | < 1 µM | < 0.1 µM |
| N#Cc1ccc(C#CCNC(=O)C(=O)NCc2ccccc2C(=O)NC2(c3ccc4ccccc4c3)CC2)cc1 [Example 171] | < 1 µM | < 0.1 µM |
| COCc1ccc(-c2cc(C3(NC(=O)c4ccccc4CNC(=O)C(=O)NCC#N)CC3)c3ccccc3c2)s1 [Example 352] | < 1 µM | < 0.1 µM |
| C[C@@H](C#Cc1c(F)cc(F)cc1C#N)NC(=O)C(=O)NCc1ccccc1C(=O)NC1(c2ccc3nn(C)cc3c2)CC1 [Example 105] | < 1 µM | < 0.1 µM |
| CC1(O)CN(c2cc(C3(NC(=O)c4ccccc4CNC(=O)C(=O)NCC#N)CC3)c3ccccc3c2)C1 [Example 319] | 1 to 10 µM | < 0.1 µM |
| C[C@@H](NC(=O)c1ccccc1CNC(=O)C(=O)NCC#N)c1cc(-c2ccco2)cc(C(F)(F)F)c1 [Example 467] | < 1 µM | < 0.1 µM |
| O=C(NCC#Cc1nc2ccccc2s1)C(=O)NCc1ccccc1C(=O)NC1(c2ccc3ccccc3c2)CC1 [Example 177] | 1 to 10 µM | 0.1 to 1 µM |
| COc1nccnc1C#CCNC(=O)C(=O)NCc1ccccc1C(=O)NC1(c2ccc3ccccc3c2)CC1 [Example 195] | < 1 µM | < 0.1 µM |
| N#Cc1cc(-c2cnn(C3CC3)c2)c(F)c(C2(NC(=O)c3ccccc3CNC(=O)C(=O)NCC#Cc3nccs3)CC2)c1 [Example 301] | < 1 µM | < 0.1 µM |
| C[C@@H](NC(=O)c1ccccc1CNC(=O)C(=O)NCC#N)c1cccc2ccccc12 [Example 6] | 1 to 10 µM | < 0.1 µM |
| Cc1nn(C)c(C)c1-c1cc(F)cc(C2(NC(=O)c3ccccc3CNC(=O)C(=O)NCC#Cc3nccs3)CC2)c1 [Example 490] | < 1 µM | < 0.1 µM |
| O=C(NCC#Cc1ncccc1C(F)(F)F)C(=O)NCc1ccccc1C(=O)NC1(c2ccc3ccccc3c2)CC1 [Example 191] | < 1 µM | < 0.1 µM |
| C#CCNC(=O)C(=O)NCc1ccccc1C(=O)NC1(c2ccc3c4c(cccc24)CC3)CC1 [Example 441, N1-(2-((1-(1,2-dihydroacenaphthylen-5-yl)cyclopropyl)carbamoyl)benzyl)-N2-(prop-2-yn-1-yl)oxalamide] | < 1 µM | < 0.1 µM |
| COc1cc(-c2cnn(C3CC3)c2)cc(C2(NC(=O)c3ccccc3CNC(=O)C(=O)NCC#Cc3nccs3)CC2)c1 [Example 246] | < 1 µM | < 0.1 µM |
| O=C(/C=C/CNC(=O)C(=O)NCc1ccccc1C(=O)NC1(c2cccc3ccccc23)CC1)Nc1ccccc1 [Example 561] | 1 to 10 µM | 0.1 to 1 µM |
| C[C@@H](C#Cc1nccs1)NC(=O)C(=O)NCc1ccccc1C(=O)NC1(c2ccnc3c2ccn3C2CC2)CC1 [Example 402] | < 1 µM | < 0.1 µM |
| C#CCNC(=O)C(=O)NCc1ccccc1C(=O)NC1(c2cc(F)c(F)c(-c3cccs3)c2)CC1 [Example 241] | 1 to 10 µM | < 0.1 µM |
| N#CCNC(=O)C(=O)NCc1cnccc1C(=O)NC1(c2cccc3ccccc23)CC1 [Example 366] | 1 to 10 µM | < 0.1 µM |
| COc1cc(C2(NC(=O)c3ccccc3CNC(=O)C(=O)NCC#Cc3ccc(C#N)cc3OC(F)(F)F)CC2)cc2cn(C3CC3)nc12 [Example 215] | < 1 µM | < 0.1 µM |
| N#CCNC(=O)C(=O)NCc1ccccc1C(=O)NC1(c2cc(N3CC(O)C3)cc3ccccc23)CC1 [Example 330] | 1 to 10 µM | < 0.1 µM |
| COC(=O)/C=C/CNC(=O)C(=O)NNc1ccccc1C(=O)NC1(c2cccc3ccccc23)CC1 [Example 576] | < 1 µM | < 0.1 µM |

| SMILES | EC50 [1] | IC50 [2] |
| --- | --- | --- |
| C#CCNC(=O)C(=O)NCc1ccccc1C(=O)NC1(c2cccc3nc(Cl)ccc23)CC1 [Example 387] | < 1 µM | < 0.1 µM |
| O=C(NCC#Cc1cnccn1)C(=O)NCc1ccccc1C(=O)NC1(c2ccc3ccccc3c2)CC1 [Example 172] | < 1 µM | < 0.1 µM |
| Cn1cnc(C#CCNC(=O)C(=O)NCc2ccccc2C(=O)NC2(c3ccc4ccccc4c3)CC2)n1 [Example 398] | < 1 µM | < 0.1 µM |
| COc1cc(C2(NC(=O)c3ccccc3CNC(=O)C(=O)N[C@@H](C)C#Cc3ccc(S(C)(=O)=O)cc3F)CC2)cc2cn(C3CC3)nc12 [Example 149] | < 1 µM | < 0.1 µM |
| C#CCNC(=O)C(=O)NCc1ccccc1C(=O)NC1(c2cc(Cl)cc(-c3cnco3)c2)CC1 [Example 450] | < 1 µM | < 0.1 µM |
| CC[C@@H](C#Cc1ncc(F)cn1)NC(=O)C(=O)NCc1ccccc1C(=O)NC1(c2ccc3nn(C)cc3c2)CC1 [Example 213] | < 1 µM | < 0.1 µM |
| O=C(NCC#Cc1nccs1)C(=O)NCc1ccccc1C(=O)NC1(c2cc(Cl)cc(-c3cnco3)c2)CC1 [Example 449] | < 1 µM | < 0.1 µM |
| C#CCNC(=O)C(=O)NCc1ccccc1C(=O)NC1(c2ccc(OC)c(Br)c2)CC1 [Example 230] | < 1 µM | < 0.1 µM |
| O=C(NCC#Cc1nccs1)C(=O)NCc1ccccc1C(=O)NC1(c2cccc3ccccc23)CC1 [Example 160] | < 1 µM | < 0.1 µM |
| O=C(NCC#Cc1nccs1)C(=O)NCc1cccnc1C(=O)NC1(c2cc(F)cc(-c3cnn(C4CC4)c3)c2)CC1 [Example 84] | < 1 µM | < 0.1 µM |
| C#CCNC(=O)C(=O)NCc1ccccc1C(=O)NC1(c2cccc(-c3cnn(C4CC4)c3)c2Cl)CC1 [Example 381] | < 1 µM | < 0.1 µM |
| C#Cc1cc(C(F)(F)F)cc(C2(NC(=O)c3ccccc3CNC(=O)C(=O)NCC#N)CC2)c1 [Example 70] | < 1 µM | 0.1 to 1 µM |
| C#CCNC(=O)C(=O)NCc1ccccc1C(=O)NC1(c2cc(F)c(F)c(-c3cnn(C4CC4)c3)c2)CC1 [Example 242] | < 1 µM | < 0.1 µM |
| N#CCNC(=O)C(=O)NCc1ccccc1C(=O)NC1(c2cccc(-c3ccc(F)cc3)c2Cl)CC1 [Example 380] | > 10 µM | 0.1 to 1 µM |
| O=C(/C=C/CNC(=O)C(=O)NCc1ccccc1C(=O)NC1(c2cccc3ccccc23)CC1)NC1CC1 [Example 541] | > 10 µM | 0.1 to 1 µM |
| CC(C)(C)OC(=O)/C=C/CNC(=O)C(=O)NCc1ccccc1C(=O)NC1(c2cccc3ccccc23)CC1 [Example 571] | 1 to 10 µM | 0.1 to 1 µM |
| COCC1CCCN1c1cc(C2(NC(=O)c3ccccc3CNC(=O)C(=O)NCC#N)CC2)c2ccccc2c1 (stereo not drawn) [Example 324] | 1 to 10 µM | < 0.1 µM |
| C#CCNC(=O)C(=O)NCc1ccccc1C(=O)NC1(c2cc(-c3cnn(C(F)F)c3)cc(C(F)(F)F)c2)CC1 [Example 473] | 1 to 10 µM | 0.1 to 1 µM |
| O=C(NCC#Cc1ccc(F)cn1)C(=O)NCc1ccccc1C(=O)NC1(c2ccc3ccccc3c2)CC1 [Example 192] | < 1 µM | < 0.1 µM |
| CC(C)Oc1cccnc1C#CCNC(=O)C(=O)NCc1ccccc1C(=O)NC1(c2cc(F)cc(-c3cnn(C4CC4)c3)c2)CC1 [Example 267] | < 1 µM | < 0.1 µM |
| C#CCNC(=O)C(=O)NCc1ccccc1C(=O)NC1(c2cc(F)cc(-c3cnn(C4CC4)c3)c2F)CC1 [Example 311] | < 1 µM | < 0.1 µM |
